Results published in US20070270591A1, “Iron (II) amino acid chelates with reducing agents attached thereto” (priority 2006, published 2007).

Details: no method given; for absorption compared with ferrous sulfate: comparison with ferrous sulfate

SMILES	absorption relative to ferric trisglycinate (absorbed x times better) (comparison with ferric trisglycinate)	absorption compared with ferrous sulfate
NCC(=O)[O-].NCC(=O)[O-].[Fe+2] [Ferrous bisglycinate]	2.3 times	better than ferrous sulfate
NCC(=O)O.NCC(=O)O.NCC(=O)O.[Fe] [ferric trisglycinate]		better than ferrous sulfate
